# Experimental data published in US20230125429A1 (priority 2017, published 2023).
# Several values for one entry are separate records, joined by “and”; a condition that tells them apart may be missing. Identical values can stand only once. Entries after “also recorded” stand apart in the source; their conditions may differ.
# Columns and labels:
# [1] = system: phosphorylated histone H3 (p-H3); assay: Histone H3 phosphorylation in HepG2 cells (Western blot); assay type: cell-based, human; conditions: 1 µM for 1 hour, 2 hours after mimosine release; monitored to hour 12
# Description: HepG2 cells were synchronized by mimosine for 28 hours and released into regular culture medium for 2 hours. […] After the treatment, cells were incubated in the regular culture condition and samples were harvested every hour from 2 to 12 hours (shown on top of the top panel). Western blots were performed to determine the relative levels of phosphorylated histone H3 (p-H3), CDK1 and beta actin (ATCB) (as controls).
# After treatments, cells were harvested and protein extracts were prepared by lysis in RIPA buffer (Solarbio). Western blots were performed using specific antibodies and SuperSignal® West Pico Chemiluminescent Substrate (Pierce). Antibodies were purchased from commercial venders as described below: polyclonal rabbit anti-PAR2 antibodies (ABGENT), polyclonal rabbit anti-Beta-Actin antibodies (Cell Signaling Technology), anti-ERK (Cell Signaling Technology), anti-phosphorylated ERK (Cell Signaling Technology), anti-phosphorylated histone H3 (Abchem), anti-CDK1 (Abcam).
# After the Triptonide treatments, cells were returned to regular culture condition and samples were harvested at various time points for Western blot analysis.
# [2] = system: cAMP; assay: Measurement of cAMP levels in HepG2 cells; assay type: cell-based, human
# [3] = system: ERK phosphorylation; assay: ERK phosphorylation in HepG2 cells (Western blot); assay type: cell-based, human; conditions: serum-starved HepG2; trypsin 50 nM, Triptolide 1 µM, Triptonide 1 µM; 0-40 minutes
# [4] = system: HepG2; assay type: cell-based, human
# [5] = system: Hep3B; assay: Growth inhibitory effect, one hour exposure (IncuCyte Zoom); assay type: cell-based, human; conditions: Hepatocellular carcinoma
# Description: (§1) Cancer cell lines and immortalized human cell lines were cultured in 1640 tissue culture medium (Corning, USA) with 10% fetal bovine serum in a standard tissue culture condition of 37° C. and 5% CO2.
# (§2) For primary hepatocytes, the seeded cells were monitored for up to 48 hours either without any treatment (as a control) or with various types of treatments. For primary keratinocytes, cells in 48-well plates were monitored either without any treatment or with various types of treatment for up to 96 hours. For HepG2, cells 96-well plates were monitored either without any treatment or with various types of treatments for up to 48 hours. The IncuCyte Zoom was set to take a set of images at fixed locations (4 per well for 96-well plates and 16 per well for 48-well plates and 12-well plates) every three hours.
# (§3) The one-hour exposure is intended to simulate the transient high concentrations within the liver as the results of either the first pass effects of some orally administered drugs, or of locally delivered drugs, anticipating that such a short term exposure is nevertheless sufficient to affect certain cell surface receptors without causing any significant off-target effects due to intracellular absorption. Such a strategy would also reduce false hits due to reversible cell cycle arrests.
# (§4) To address this possibility, we investigated whether other cell lines, including other HCC cell lines, cell lines from other type of cancers, as well as non-cancer immortalized/transformed cell lines, were also sensitive to Triptonide. Specifically, a total of 51 human cancer cell lines, representing 10 types of human cancers (6 non-small cell lung cancer cell lines, 5 colon cancer cell lines, 5 central nerve system cancer cell lines, 8 Melanomas cell lines, 4 ovarian cancer cell lines, 4 renal cancer cell lines, 2 prostate cancer cell lines, 3 breast cancer cell lines, 7 hepatocellular carcinoma cell lines, and 4 gastric cancer cell lines) were analyzed.
# [6] = system: HT29; assay: as above; assay type: cell-based, human; conditions: HT29, Colon
# Description: as §1, §2, §3, §4
# [7] = system: NCI/ADR-RES; assay: as above; assay type: cell-based, human; conditions: Ovarian
# Description: as §1, §2, §3, §4
# [8] = system: HS 578T; assay: as above; assay type: cell-based, human; conditions: Breast
# Description: as §1, §2, §3, §4
# [9] = system: HepG2; assay: as above; assay type: cell-based, human
# Description: as §1, §2, §3, §4
# [10] = system: SN12C; assay: as above; assay type: cell-based, human; conditions: Renal
# Description: as §1, §2, §3, §4
# [11] = system: A498; assay: as above; assay type: cell-based, human; conditions: A498, Renal
# Description: as §1, §2, §3, §4
# [12] = system: MDA-MB-435; assay: as above; assay type: cell-based, human; conditions: MDA-MB-435, Melanoma
# Description: as §1, §2, §3, §4
# [13] = system: NCI-H23; assay: as above; assay type: cell-based, human; conditions: NCI-H23, Non-Small Cell Lung
# Description: as §1, §2, §3, §4
# [14] = system: UACC-62; assay: as above; assay type: cell-based, human; conditions: UACC-62, Melanoma
# Description: as §1, §2, §3, §4
# [15] = system: NCI-H460; assay: as above; assay type: cell-based, human; conditions: NCI-H460, Non-Small Cell Lung
# Description: as §1, §2, §3, §4
# [16] = system: SK-OV-3; assay: as above; assay type: cell-based, human; conditions: SK-OV-3, Ovarian
# Description: as §1, §2, §3, §4
# [17] = system: HCC-2998; assay: as above; assay type: cell-based, human; conditions: HCC-2998, Colon
# Description: as §1, §2, §3, §4
# [18] = system: MCP7; assay: as above; assay type: cell-based, human; conditions: MCP7, Breast
# Description: as §1, §2, §3, §4
# [19] = system: ACHN; assay: as above; assay type: cell-based, human; conditions: Renal
# Description: as §1, §2, §3, §4
# [20] = system: MGC803; assay: as above; assay type: cell-based, human; conditions: MGC803, Gastric cancer
# Description: as §1, §2, §3, §4
# [21] = system: BGC823; assay: as above; assay type: cell-based, human; conditions: BGC823, Gastric cancer
# Description: as §1, §2, §3, §4
# [22] = system: EKVX; assay: as above; assay type: cell-based, human; conditions: Non-Small Cell Lung
# Description: as §1, §2, §3, §4
# [23] = system: SNB-19; assay: as above; assay type: cell-based, human; conditions: SNB-19, CNS
# Description: as §1, §2, §3, §4
# [24] = system: primary mouse hepatocytes (PMH); assay: Growth of primary mouse hepatocytes, one-hour treatment; assay type: cell-based; conditions: as high as 320 µM
# [25] = system: serum starved HepG2 cells; assay type: cell-based, human
# [26] = system: Par2 knockout keratinocytes; assay: Growth of Par2 knockout primary keratinocytes, one hour treatment; assay type: cell-based, mouse; conditions: one hour treatment
smiles,measurement,setting,value
CC(C)[C@]12O[C@H]1[C@@H]1O[C@@]13[C@@]1(C)CCC4=C(COC4=O)[C@@H]1C[C@@H]1O[C@@]13C2=O [Triptonide],level of histone H3 phosphorylation,[1],remained very low
same,amplitude of cAMP elevation versus control,"[2]; 1 µM at 2 hours after mimosine treatment, serum-free",about 4 folds
same,levels of cAMP,"[2]; 1 µM at non-sensitive time, 4 hours after mimosine treatment",modest elevation
same,levels of cAMP,"[2]; treatment 2 hours after mimosine, Trypsin 50 nM, Triptonide 1 µM, serum-free",two waves of elevation
same,levels of phosphorylated ERK,[3],only an acute transient increase
same,effect of continuous exposure on HepG2,[4],complete death
same,IC50,[5],1.28 µM
same,IC50,[6],1.7 µM
same,IC50,[7],8.34 µM
same,IC50,[8],1.86 µM
same,effect on growth of HepG2,[9]; 4 µM or higher for one hour,significant growth inhibition
same,effect on cell density of HepG2,"[9]; 16 µM and above, one hour",apparent reduction in cell density
same,IC50,"[9]; HepG2, Hepatocellular carcinoma, one hour exposure",7.5 µM and 7.51 µM
same,IC50,[10],1.07 µM
same,IC50,[11],4.34 µM
same,IC50,[12],1.91 µM
same,IC50,[13],0.41 µM and 0.415 µM
same,IC50,[14],9.35 µM
same,IC50,[15],8.44 µM
same,IC50,[16],3.89 µM
same,IC50,[17],2.77 µM
same,IC50,[18],0.592 µM
same,IC50,[19],15 µM
same,IC50,[20],2.58 µM
same,IC50,[21],10.4 µM
same,IC50,[22],2.38 µM
same,IC50,[23],51 µM
same,growth inhibitory effect on PMHs,[24],no significant growth inhibitory effect
same,cells exhibiting the features of mitotic catastrophe,[25],approximately 60%
same,effect on growth of serum starved HepG2 cells,[25],no significant impacts; also recorded: growth inhibitory only when it was administered at the 0 and 2 hours after the starvation
same,effect on growth of Par2 knockout keratinocytes,[26]; 100 and 200 µM,growth inhibitory effects
same,IC50,[26]; Par2 knockout keratinocytes,25.7 µM
same,effect on growth of Par2 knockout keratinocytes,[26]; concentrations up to 26 µM,did not cause significant growth inhibition
